Source: patent publication US20250064941A1, “SIGLEC LIGANDS, CONJUGATES, AND METHODS OF USE THEREOF” (Osprey Biopharmaceuticals, Inc., priority 2023, published 2025)
pKd: −log10 of the molar value.

Assays:
[1] = target: T1, human Siglec-2/CD22 protein (Homo sapiens, UniProt P20273); assay: SPR binding affinity to human CD22; conditions: steady-state analysis
T1 construct: purchased Acro Biosystems SI2-H82E3
T1 sequence (P20273 20-847): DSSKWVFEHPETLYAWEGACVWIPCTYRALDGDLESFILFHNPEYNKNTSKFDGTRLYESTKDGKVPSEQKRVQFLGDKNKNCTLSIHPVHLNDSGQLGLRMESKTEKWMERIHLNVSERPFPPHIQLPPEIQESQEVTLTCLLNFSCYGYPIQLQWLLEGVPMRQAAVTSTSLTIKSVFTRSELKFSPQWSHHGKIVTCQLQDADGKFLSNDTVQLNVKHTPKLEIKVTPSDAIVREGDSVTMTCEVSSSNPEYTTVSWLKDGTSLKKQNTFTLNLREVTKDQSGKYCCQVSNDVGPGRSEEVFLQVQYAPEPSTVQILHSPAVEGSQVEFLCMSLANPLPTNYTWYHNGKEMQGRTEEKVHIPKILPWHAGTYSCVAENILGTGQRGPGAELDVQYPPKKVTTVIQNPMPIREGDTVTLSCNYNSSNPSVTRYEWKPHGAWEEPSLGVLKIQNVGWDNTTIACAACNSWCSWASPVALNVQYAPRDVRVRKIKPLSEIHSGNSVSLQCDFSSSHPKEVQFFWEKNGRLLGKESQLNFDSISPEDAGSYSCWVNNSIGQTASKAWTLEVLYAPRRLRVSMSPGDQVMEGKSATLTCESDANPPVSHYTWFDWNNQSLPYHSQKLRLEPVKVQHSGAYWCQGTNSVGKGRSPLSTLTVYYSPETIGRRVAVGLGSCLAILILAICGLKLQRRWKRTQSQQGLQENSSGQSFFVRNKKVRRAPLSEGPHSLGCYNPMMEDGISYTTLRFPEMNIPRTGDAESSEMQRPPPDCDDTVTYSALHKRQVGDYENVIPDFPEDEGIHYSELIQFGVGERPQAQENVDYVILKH
In short: (§1)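 SialoExo pretreatment, 4 h 37° C.; biotinylated CD22 on SA chip, Biacore 8K. Buffer 10 mM HEPES, 150 mM NaCl, 0.05% Tween-20, pH 7.5, 1% DMSO. Dissociation 120 s; solvent-corrected; steady-state KD.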

[2] = target: cynomolgus Siglec-2/CD22 (Macaca fascicularis, UniProt A0A2K5WCZ6); assay: biochemical; type: binding; conditions: SPR, steady-state analysis; read-out: Affinity cyno CD22
In short: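 SPR with desialylated (SialoExo, 4 h, 37° C.) cynomolgus CD22 amine-coupled to a CM5 chip. Running buffer 10 mM HEPES, 150 mM NaCl, 0.05% Tween-20, pH 7.5, 1% DMSO, with solvent correction; 120 s dissociation. Affinities from steady-state analysis.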

[3] = target: T2, mouse Siglec-2-Fc-Avi (CD22) (Mus musculus, UniProt P35329); assay: SPR binding affinity to mouse CD22; conditions: steady-state analysis
T2 construct: made in house
T2 sequence (P35329 22-708 limits assumed): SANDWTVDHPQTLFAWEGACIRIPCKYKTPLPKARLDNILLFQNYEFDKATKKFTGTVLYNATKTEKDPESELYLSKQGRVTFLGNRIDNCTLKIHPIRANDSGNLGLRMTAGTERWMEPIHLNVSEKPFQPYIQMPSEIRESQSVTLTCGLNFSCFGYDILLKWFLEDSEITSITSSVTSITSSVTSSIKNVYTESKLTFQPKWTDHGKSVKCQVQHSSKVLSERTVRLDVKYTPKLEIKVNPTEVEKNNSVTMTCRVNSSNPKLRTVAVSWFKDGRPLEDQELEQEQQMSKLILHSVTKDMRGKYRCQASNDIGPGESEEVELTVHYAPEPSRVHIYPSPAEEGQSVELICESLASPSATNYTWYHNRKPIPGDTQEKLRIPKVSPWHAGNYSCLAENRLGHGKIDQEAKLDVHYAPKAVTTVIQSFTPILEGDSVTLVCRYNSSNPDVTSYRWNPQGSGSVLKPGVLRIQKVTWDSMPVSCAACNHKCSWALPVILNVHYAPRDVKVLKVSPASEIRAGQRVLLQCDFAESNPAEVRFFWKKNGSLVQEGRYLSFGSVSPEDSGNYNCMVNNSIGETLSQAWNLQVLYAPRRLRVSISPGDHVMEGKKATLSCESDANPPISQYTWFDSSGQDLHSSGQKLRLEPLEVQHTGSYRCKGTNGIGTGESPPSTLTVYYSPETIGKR
In short: as §1

cynomolgus Siglec-2/CD22, sequence (A0A2K5WCZ6 entry or part of it): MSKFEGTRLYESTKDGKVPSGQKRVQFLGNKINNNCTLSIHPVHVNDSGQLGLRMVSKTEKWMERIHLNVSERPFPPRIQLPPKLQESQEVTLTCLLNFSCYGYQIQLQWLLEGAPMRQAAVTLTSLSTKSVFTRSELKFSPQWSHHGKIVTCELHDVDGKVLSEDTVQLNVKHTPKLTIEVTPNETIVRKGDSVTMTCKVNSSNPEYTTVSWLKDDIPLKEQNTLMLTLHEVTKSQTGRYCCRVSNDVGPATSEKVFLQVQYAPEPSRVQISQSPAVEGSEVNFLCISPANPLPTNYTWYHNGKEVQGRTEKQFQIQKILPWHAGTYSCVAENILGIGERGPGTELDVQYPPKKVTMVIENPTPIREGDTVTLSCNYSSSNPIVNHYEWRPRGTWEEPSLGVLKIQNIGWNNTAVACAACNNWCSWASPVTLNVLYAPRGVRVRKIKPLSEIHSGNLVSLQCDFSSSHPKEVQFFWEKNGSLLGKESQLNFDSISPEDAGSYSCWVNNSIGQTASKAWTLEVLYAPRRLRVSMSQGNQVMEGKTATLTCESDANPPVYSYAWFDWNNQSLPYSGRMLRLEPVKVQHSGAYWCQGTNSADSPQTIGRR

| pKd [1] | pKd [2] | pKd [3] | SMILES |
| --- | --- | --- | --- |
| 5.00 to 6.00 | 5.00 to 6.00 | 5.00 to 6.00 | CC(=O)NCCOCCOCCOCCOCCC(=O)NCCOCCOCCO[C@]1(C(=O)O)C[C@H](O)[C@@H](NC(=O)CO)[C@H]([C@H](O)[C@H](O)CNC(=O)Cc2ccc(Cl)cc2)O1 [Compound 237, (2R,4S,5R,6R)-6-((1R,2R)-3-(2-(4-chlorophenyl)acetamido)-1,2-dihydroxypropyl)-2-((2,18-dioxo-6,9,12,15,22,25-hexaoxa-3,19-diazaheptacosan-27-yl)oxy)-4-hydroxy-5-(2-hydroxyacetamido) tetrahydro-2H-pyran-2-carboxylic acid] |
| > 6.00 | > 6.00 | 5.00 to 6.00 | C#CCOCCCCCCO[C@]1(C(=O)O)C[C@H](O)[C@@H](NC(=O)CO)[C@H]([C@H](O)[C@H](O)CNC(=O)Cc2ccc3cc[nH]c3c2)O1 [Compound 5, (2R,4S,5R,6R)-6-((1R,2R)-3-(2-(1H-indol-6-yl)acetamido)-1,2-dihydroxypropyl)-4-hydroxy-5-(2-hydroxyacetamido)-2-((6-(prop-2-yn-1-yloxy)hexyl)oxy)tetrahydro-2H-pyran-2-carboxylic acid] |
| 5.00 to 6.00 | > 6.00 | 5.00 to 6.00 | C#CCOCCCCCCO[C@]1(C(=O)O)C[C@H](O)[C@@H](NC(=O)C(C)O)[C@H]([C@H](O)[C@H](O)CNC(=O)Cc2ccc(Cl)cc2)O1 (stereo partly drawn) [Compound 183, (2R,4S,5R,6R)-6-((1R,2R)-3-(2-(4-chlorophenyl)acetamido)-1,2-dihydroxypropyl)-4-hydroxy-5-(2-hydroxypropanamido)-2-((6-(prop-2-yn-1-yloxy)hexyl)oxy)tetrahydro-2H-pyran-2-carboxylic acid] |
| > 6.00 | 5.00 to 6.00 | 5.00 to 6.00 | C#CCOc1ccccc1-c1cn([C@]2(C(=O)O)C[C@H](O)[C@@H](NC(=O)CO)[C@H]([C@H](O)[C@H](O)CNC(=O)Cc3ccc(-c4ccc(O)cc4)cc3)O2)nn1 [Compound 59, (2R,4S,5R,6R)-6-((1R,2R)-1,2-dihydroxy-3-(2-(4′-hydroxy-[1,1′-biphenyl]-4-yl)acetamido)propyl)-4-hydroxy-5-(2-hydroxyacetamido)-2-(4-(2-(prop-2-yn-1-yloxy)phenyl)-1H-1,2,3-triazol-1-yl)tetrahydro-2H-pyran-2-carboxylic acid] |
| < 5.00 | < 5.00 | < 5.00 | C#CCOCCOCCO[C@]1(C(=O)O)C[C@H](O)[C@@H](NC(=O)NCC(F)(F)F)[C@H]([C@H](O)[C@H](O)CNC(=O)Cc2ccc(-c3ccc(O)cc3)cc2)O1 [Compound 199, (2R,4S,5R,6R)-6-((1R,2R)-1,2-dihydroxy-3-(2-(4′-hydroxy-[1,1′-biphenyl]-4-yl)acetamido)propyl)-4-hydroxy-2-(2-(2-(prop-2-yn-1-yloxy)ethoxy)ethoxy)-5-(3-(2,2,2-trifluoroethyl)ureido)tetrahydro-2H-pyran-2-carboxylic acid] |
| < 5.00 | < 5.00 | 5.00 to 6.00 | C#CCOCCOCCO[C@]1(C(=O)O)C[C@H](O)[C@@H](NC(=O)CO)[C@H]([C@H](O)[C@H](O)CNC(=O)C[C@H]2CC[C@H](O)CC2)O1 [Compound 14, (2R,4S,5R,6R)-6-((1R,2R)-1,2-dihydroxy-3-(2-((1r,4R)-4-hydroxycyclohexyl)acetamido)propyl)-4-hydroxy-5-(2-hydroxyacetamido)-2-(2-(2-(prop-2-yn-1-yloxy)ethoxy)ethoxy)tetrahydro-2H-pyran-2-carboxylic acid] |
| > 6.00 | 5.00 to 6.00 | 5.00 to 6.00 | C#CCOc1ccc(CO[C@]2(C(=O)O)C[C@H](O)[C@@H](NC(=O)CO)[C@H]([C@H](O)[C@H](O)CNC(=O)Cc3ccc(-c4ccc(F)cc4)cc3)O2)cc1 [Compound 48, (2R,4S,5R,6R)-6-((1R,2R)-3-(2-(4′-fluoro-[1,1′-biphenyl]-4-yl)acetamido)-1,2-dihydroxypropyl)-4-hydroxy-5-(2-hydroxyacetamido)-2-((4-(prop-2-yn-1-yloxy)benzyl)oxy)tetrahydro-2H-pyran-2-carboxylic acid] |
| 5.00 to 6.00 | 5.00 to 6.00 | 5.00 to 6.00 | C#CCOCCOCCNc1c(NCCCCCCO[C@]2(C(=O)O)C[C@H](O)[C@@H](NC(=O)CO)[C@H]([C@H](O)[C@H](O)CNC(=O)c3cccc(F)c3)O2)c(=O)c1=O [Compound 234, (2R,4S,5R,6R)-2-((6-((3,4-dioxo-2-((2-(2-(prop-2-yn-1-yloxy)ethoxy)ethyl)amino)cyclobut-1-en-1-yl)amino)hexyl)oxy)-6-((1R,2R)-3-(3-fluorobenzamido)-1,2-dihydroxypropyl)-4-hydroxy-5-(2-hydroxyacetamido)tetrahydro-2H-pyran-2-carboxylic acid] |
| < 5.00 | < 5.00 | < 5.00 | C#CCOCCOCCO[C@]1(C(=O)O)C[C@H](O)[C@@H](NC(=O)CO)[C@H]([C@H](O)[C@H](O)CNC(=O)Cc2ccc(-c3cc[nH]c(=O)c3)cc2)O1 [Compound 75, (2R,4S,5R,6R)-6-((1R,2R)-1,2-dihydroxy-3-(2-(4-(2-oxo-1,2-dihydropyridin-4-yl)phenyl)acetamido)propyl)-4-hydroxy-5-(2-hydroxyacetamido)-2-(2-(2-(prop-2-yn-1-yloxy)ethoxy)ethoxy)tetrahydro-2H-pyran-2-carboxylic acid] |
| > 6.00 | > 6.00 | 5.00 to 6.00 | C#CCCCCCCO[C@]1(C(=O)O)C[C@H](O)[C@@H](NC(=O)CO)[C@H]([C@H](O)[C@H](O)CNC(=O)c2cccc(Oc3ccccc3)c2)O1 [Compound 40, (2R,4S,5R,6R)-6-((1R,2R)-1,2-dihydroxy-3-(3-phenoxybenzamido)propyl)-4-hydroxy-5-(2-hydroxyacetamido)-2-(oct-7-yn-1-yloxy) tetrahydro-2H-pyran-2-carboxylic acid] |
| > 6.00 | > 6.00 | > 6.00 | C#Cc1ccc(CO[C@]2(C(=O)O)C[C@H](O)[C@@H](NC(=O)CO)[C@H]([C@H](O)[C@H](O)CNC(=O)Cc3cccc(O)c3)O2)cc1 [Compound 142, (2R,4S,5R,6R)-6-((1R,2R)-1,2-dihydroxy-3-(2-(3-hydroxyphenyl)acetamido)propyl)-2-((4-ethynylbenzyl)oxy)-4-hydroxy-5-(2-hydroxyacetamido)tetrahydro-2H-pyran-2-carboxylic acid] |
| > 6.00 | 5.00 to 6.00 | > 6.00 | C#CCCOc1ccc(CO[C@]2(C(=O)O)C[C@H](O)[C@@H](NC(=O)CO)[C@H]([C@H](O)[C@H](O)CNC(=O)Cc3ccc(-c4ccc(NC(C)=O)cc4)cc3)O2)cc1 [Compound 50, (2R,4S,5R,6R)-6-((1R,2R)-3-(2-(4′-acetamido-[1,1′-biphenyl]-4-yl)acetamido)-1,2-dihydroxypropyl)-2-((4-(but-3-yn-1-yloxy)benzyl)oxy)-4-hydroxy-5-(2-hydroxyacetamido)tetrahydro-2H-pyran-2-carboxylic acid] |
| > 6.00 | > 6.00 | 5.00 to 6.00 | CCCCCCC[C@]1(C(=O)O)C[C@H](O)[C@@H](NC(=O)CO)[C@H]([C@H](O)[C@H](O)CNC(=O)Cc2ccc(Cl)cc2)O1 [Compound 206, (2R,4S,5R,6R)-6-((1R,2R)-3-(2-(4-chlorophenyl)acetamido)-1,2-dihydroxypropyl)-2-heptyl-4-hydroxy-5-(2-hydroxyacetamido)tetrahydro-2H-pyran-2-carboxylic acid] |
